Biological target: T1, menin-MLL interaction (Homo sapiens, UniProt O00255)
T1 sequence (O00255 1-610): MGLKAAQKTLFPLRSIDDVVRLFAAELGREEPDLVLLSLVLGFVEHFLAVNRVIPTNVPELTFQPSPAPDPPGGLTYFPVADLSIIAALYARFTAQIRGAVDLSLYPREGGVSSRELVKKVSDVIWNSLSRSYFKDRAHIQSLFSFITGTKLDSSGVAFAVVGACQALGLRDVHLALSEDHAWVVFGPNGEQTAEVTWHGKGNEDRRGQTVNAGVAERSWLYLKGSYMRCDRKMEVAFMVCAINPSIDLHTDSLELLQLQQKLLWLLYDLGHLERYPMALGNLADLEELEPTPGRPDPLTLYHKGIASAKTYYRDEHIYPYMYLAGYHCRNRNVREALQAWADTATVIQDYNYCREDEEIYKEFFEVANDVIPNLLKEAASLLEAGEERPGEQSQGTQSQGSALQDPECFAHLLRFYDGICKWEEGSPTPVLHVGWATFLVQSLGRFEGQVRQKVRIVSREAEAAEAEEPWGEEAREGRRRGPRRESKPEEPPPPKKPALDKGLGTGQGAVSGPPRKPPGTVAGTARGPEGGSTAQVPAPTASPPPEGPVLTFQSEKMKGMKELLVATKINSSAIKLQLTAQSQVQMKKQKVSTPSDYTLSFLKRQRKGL
Experiment: Fluorescence polarization (FP) competition assay
Type: binding
Conditions: menin / MLL 4-43 peptide

Row | IC50 [µM] | SMILES
1 | 0.25 to 1 | C=CC(=O)Nc1ccc(C(Cn2c(C#N)cc3c(C)c(CN4CCC(Nc5ncnc6sc(CC(F)(F)F)cc56)CC4)ccc32)OC)cc1 (stereo not shown) [Compound I-1]
2 | 0.25 to 1 | Cc1c(CN2CCC(Nc3ncnc4sc(CC(F)(F)F)cc34)CC2)ccc2c1cc(C#N)n2CC(C)C1CCN(S(C)(=O)=O)CC1 (stereo not shown) [Compound I-3]
3 | 0.25 to 1 | Cc1c(CN2CCC(Nc3ncnc4sc(CC(F)(F)F)cc34)CC2)ccc2c1cc(C#N)n2CC(C(C)C)N1CCN(S(C)(=O)=O)CC1 (stereo not shown) [Compound I-24]
4 | 0.25 to 1 | CC[C@H]1CN(C(C)Cn2c(C#N)cc3c(C)c(CN4CCC(Nc5ncnc6sc(CC(F)(F)F)cc56)CC4)ccc32)CCN1S(C)(=O)=O (stereo partly shown) [Compound I-26]
5 | 0.25 to 1 | Cc1c(CN2CCC(Nc3ncnc4sc(CC(F)(F)F)cc34)CC2)ccc2c1cc(C#N)n2CCN1CC(C)N(S(C)(=O)=O)CC1C (stereo not shown) [Compound I-44]
6 | 0.25 to 1 | Cc1c(CN2CCC(Nc3ncnc4sc(CC(F)(F)F)cc34)CC2)ccc2c1cc(C#N)n2CCN1CCN(S(C)(=O)=O)CC1C (stereo not shown) [Compound I-45]
7 | 0.25 to 1 | Cc1c(CN2CCC(Nc3ncnc4sc(CC(F)(F)F)cc34)CC2)ccc2c1cc(C#N)n2CCN1CCN(C2CCN(S(C)(=O)=O)C2)CC1 (stereo not shown) [Compound I-52]
8 | 0.25 to 1 | Cc1c(CN2CCC(Nc3ncnc4sc(CC(F)(F)F)cc34)CC2)ccc2c1cc(C#N)n2CCN1CCC2(CCN(S(C)(=O)=O)C2)C1 (stereo not shown) [Compound I-53]
9 | 0.05 to 0.25 | Cc1c(CN2CCC(Nc3ncnc4sc(CC(F)(F)F)cc34)CC2)ccc2c1cc(C#N)n2CCN1CCC2(CC1)CC(S(C)(=O)=O)C2 [Compound I-54]
10 | 0.25 to 1 | Cc1c(CN2CCC(Nc3ncnc4sc(CC(F)(F)F)cc34)CC2)ccc2c1cc(C#N)n2CCN1CC2CN(S(C)(=O)=O)CC2C1 (stereo not shown) [Compound I-55]
11 | 0.25 to 1 | Cc1c(CN2CCC(Nc3ncnc4sc(CC(F)(F)F)cc34)CC2)ccc2c1cc(C#N)n2CCN1CC2(CCN(S(C)(=O)=O)CC2)C1 [Compound I-56]
12 | 0.25 to 1 | Cc1c(CN2CCC(Nc3ncnc4sc(CC(F)(F)F)cc34)CC2)ccc2c1cc(C#N)n2CCN1CC2(C1)CN(S(C)(=O)=O)C2 [Compound I-57]
13 | 0.25 to 1 | Cc1c(CN2CCC(Nc3ncnc4sc(CC(F)(F)F)cc34)CC2)ccc2c1cc(C#N)n2CCN1CC2(CCN(S(C)(=O)=O)C2)C1 [Compound I-58]
14 | 0.25 to 1 | Cc1c(CN2CCC(Nc3ncnc4sc(CC(F)(F)F)cc34)CC2)ccc2c1cc(C#N)n2CCC1CCN(S(C)(=O)=O)C(C)C1 (stereo not shown) [Compound I-59]
15 | 0.25 to 1 | CNS(=O)(=O)N1CCN([C@H](C)Cn2c(C#N)cc3c(C)c(CN4CCC(Nc5ncnc6sc(CC(F)(F)F)cc56)CC4)ccc32)CC1 [Compound I-66]
16 | 0.25 to 1 | Cc1c(CN2CCC(Nc3ncnc4sc(CC(F)(F)F)cc34)CC2)ccc2c1cc(C#N)n2C[C@@H](C)N1CCN(C=O)CC1 [Compound I-67]

Row | IC50 [µM] | SMILES
17 | 0.25 to 1 | Cc1c(CN2CCC(Nc3ncnc4sc(CC(F)(F)F)cc34)CC2)ccc2c1cc(C#N)n2CC(C)N1CCN(S(C)(=O)=O)C(C(=O)O)C1 (stereo not shown) [Compound I-82]
18 | 0.25 to 1 | Cc1c(CN2CCC(Nc3ncnc4sc(CC(F)(F)F)cc34)CC2)ccc2c1cc(C#N)n2C[C@H](C)N1CCN(C(=O)C(F)(F)F)CC1 [Compound I-118]
19 | 0.05 to 0.25 | CNS(=O)(=O)N1CCN(C(C)Cn2c(C#N)cc3c(C)c(CN4CCC(Nc5ncnc6sc(CC(F)(F)F)cc56)CC4)ccc32)CC1 (stereo not shown) [Compound I-128]
20 | 0.25 to 1 | Cc1c(CN2CCC(Nc3ncnc4sc(CC(F)(F)F)cc34)CC2)ccc2c1cc(C#N)n2C[C@H](C)N1CCC(NP(C)(C)=O)CC1 [Compound I-157]
21 | 0.05 to 0.25 | Cc1c(CN2CCC(Nc3ncnc4sc(CC(F)(F)F)cc34)CC2)ccc2c1cc(C#N)n2CC(C)N1CCC(NS(C)(=O)=O)C1 (stereo not shown) [Compound I-162]
22 | 0.25 to 1 | Cc1c(CN2CCC(Nc3nc(C4CC4)nc4sc(CC(F)(F)F)cc34)CC2)ccc2c1cc(C#N)n2C[C@H](C)N1CCN(S(C)(=O)=O)CC1 [Compound I-173]
23 | 0.05 to 0.25 | CNc1nc(NC2CCN(Cc3ccc4c(cc(C#N)n4C[C@H](C)N4CCN(S(=O)(=O)NC)CC4)c3C)CC2)c2cc(CC(F)(F)F)sc2n1 [Compound I-185]
24 | 0.25 to 1 | Cc1nc(NC2CCN(Cc3ccc4c(cc(C#N)n4C[C@@H](C)N4CCN(S(C)(=O)=O)CC4)c3C)CC2)c2cc(CC(F)(F)F)sc2n1 [Compound I-201]
25 | < 0.05 | CNc1nc(NC2CCN(Cc3ccc4c(cc(C#N)n4CCN4CCN(S(C)(=O)=O)[C@H](C#N)C4)c3C)CC2)c2cc(CC(F)(F)F)sc2n1 [Compound I-209]
26 | < 0.05 | COc1nc(NC2CCN(Cc3ccc4c(cc(C#N)n4C[C@H](C)N4CCC(S(C)(=O)=O)CC4)c3C)CC2)c2cc(CC(F)(F)F)sc2n1 [Compound I-218]
27 | 0.25 to 1 | CCS(=O)(=O)NC12CC(Cn3c(C#N)cc4c(C)c(CN5CCC(Nc6ncnc7sc(CC(F)(F)F)cc67)CC5)ccc43)(C1)C2 [II-4]
28 | < 0.05 | Cc1c(CN2CCC(Nc3ncnc4sc(CC(F)(F)F)cc34)CC2)ccc2c1cc(C#N)n2CC12CC(NC(=O)C3CCCC(=O)N3)(C1)C2 (stereo not shown) [II-35]
29 | 0.05 to 0.25 | Cc1c(CN2CCC3(CCN(c4ncnc5sc(CC(F)(F)F)cc45)C3)C2)ccc2[nH]c(C#N)cc12 (stereo not shown) [III-30a]
30 | 0.05 to 0.25 | CS(=O)(=O)Nc1ccc(CN2CCC3(CCN(c4ncnc5sc(CC(F)(F)F)cc45)C3)C2)cc1 (stereo not shown) [III-38]
31 | 0.25 to 1 | CS(=O)(=O)N[C@H]1CC[C@H](CN2CCC3(CCN(c4ncnc5sc(CC(F)(F)F)cc45)C3)C2)CC1 (stereo partly shown) [III-48]
